In the supplement of paper PMC9663587:

What was measured:
Flavopiridol = compound: CN1CC[C@H](c2c(O)cc(O)c3c(=O)cc(-c4ccccc4Cl)oc23)[C@H](O)C1 [Flavopiridol]; assay: GR value, 72 h; higher = faster growth (1 = untreated, <0 = killing);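 note: breast cancer and non-malignant breast epithelial lines, nine half-log doses, viable cells counted by Hoechst and LIVE/DEAD dye imaging versus time-zero plates and DMSO controls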
YKL-5-124 = compound: C=CC(=O)Nc1ccc(C(=O)Nc2[nH]nc3c2CN(C(=O)N[C@H](CN(C)C)c2ccccc2)C3(C)C)cc1 [YKL-5-124]; assay: as above
[1] = compound: CCc1cnn2c(NCc3ccc[n+]([O-])c3)cc(N3CCCC[C@H]3CCO)nc12; assay: as above
[2] = compound: CC(=O)c1c(C)c2cnc(Nc3ccc(N4CCNCC4)cn3)nc2n(C2CCCC2)c1=O; assay: as above
THZ531 = compound: CN(C)C/C=C/C(=O)Nc1ccc(C(=O)N2CCC[C@@H](Nc3ncc(Cl)c(-c4c[nH]c5ccccc45)n3)C2)cc1 [THZ531]; assay: as above
THZ1 = compound: CN(C)C/C=C/C(=O)Nc1ccc(C(=O)Nc2cccc(Nc3ncc(Cl)c(-c4c[nH]c5ccccc45)n3)c2)cc1 [THZ1]; assay: as above
LEE011/Ribociclib = compound: CN(C)C(=O)c1cc2cnc(Nc3ccc(N4CCNCC4)cn3)nc2n1C1CCCC1 [LEE011/Ribociclib]; assay: as above
[3] = compound: CCN1CCN(Cc2ccc(Nc3ncc(F)c(-c4cc(F)c5nc(C)n(C(C)C)c5c4)n3)nc2)CC1; assay: as above
Paclitaxel = compound: CC(=O)O[C@H]1C(=O)[C@@]2(C)[C@H]([C@H](OC(=O)c3ccccc3)[C@]3(O)C[C@H](OC(=O)[C@H](O)[C@@H](NC(=O)c4ccccc4)c4ccccc4)C(C)=C1C3(C)C)[C@]1(OC(C)=O)CO[C@@H]1C[C@@H]2O [Paclitaxel]
Vorinostat = compound: O=C(CCCCCCC(=O)Nc1ccccc1)NO [Vorinostat]
AZD5363 = compound: NC1(C(=O)N[C@@H](CCO)c2ccc(Cl)cc2)CCN(c2nc[nH]c3nccc2-3)CC1 [AZD5363]
BSJ-03-123 = compound: CC(=O)c1c(C)c2cnc(Nc3ccc(N4CCN(CCOCCOCCOCCNC(=O)COc5cccc6c5C(=O)N(C5CCC(=O)NC5=O)C6=O)CC4)cn3)nc2n(C2CCCC2)c1=O [BSJ-03-123]
[4] = compound: CCc1cnn2c(NCc3ccc[n+]([O-])c3)cc(N3CCCC[C@H]3CCO)nc12
Buparlisib/NVP-BKM120 = compound: Nc1cc(C(F)(F)F)c(-c2cc(N3CCOCC3)nc(N3CCOCC3)n2)cn1 [Buparlisib/NVP-BKM120]
SHP099 = compound: CC1(CCN(CC1)C2=CN=C(C(=N2)N)C3=C(C(=CC=C3)Cl)Cl)N [SHP099]
Cabozantinib = compound: COc1cc2nccc(Oc3ccc(NC(=O)C4(C(=O)Nc5ccc(F)cc5)CC4)cc3)c2cc1OC [Cabozantinib]
[5] = compound: CCN1CCN(Cc2ccc(Nc3ncc(F)c(-c4cc(F)c5nc(C)n(C(C)C)c5c4)n3)nc2)CC1
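Throughout, for GR50, 72 h: breast cancer and non-malignant breast epithelial cell lines, Deep Dye Drop or Dye Drop imaging, nine half-log doses, GR normalized to time-zero plates and DMSO-only controls.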

Cell Line: EVSAT
- GR value (Flavopiridol; 0.0001 µM): 1.01 GR
- GR value (Flavopiridol; 0.0003162 µM): 1.06 GR
- GR value (Flavopiridol; 0.001 µM): 1.02 GR
- GR value (Flavopiridol; 0.003162 µM): 0.984 GR
- GR value (Flavopiridol; 0.01 µM): 0.925 GR
- GR value (Flavopiridol; 0.03162 µM): 0.97 GR
- GR value (Flavopiridol; 0.1 µM): 0.917 GR
- GR value (Flavopiridol; 0.3162 µM): 0.619 GR
- GR value (Flavopiridol; 1 µM): -0.514 GR
- GR value (YKL-5-124; 0.001 µM): 0.327 GR
- GR value (YKL-5-124; 0.003162 µM): 0.292 GR
- GR value (YKL-5-124; 0.01 µM): 0.215 GR
- GR value (YKL-5-124; 0.03162 µM): 0.13 GR
- GR value (YKL-5-124; 0.1 µM): 0.0905 GR
- GR value (YKL-5-124; 0.3162 µM): 0.0313 GR
- GR value (YKL-5-124; 1 µM): 0.019 GR
- GR value (YKL-5-124; 3.162 µM): -0.0275 GR
- GR value (YKL-5-124; 10 µM): -0.412 GR
- GR value ([1]; 0.0001 µM): 0.951 GR
- GR value ([1]; 0.0003162 µM): 0.967 GR
- GR value ([1]; 0.001 µM): 0.959 GR
- GR value ([1]; 0.003162 µM): 0.994 GR
- GR value ([1]; 0.01 µM): 1.01 GR
- GR value ([1]; 0.03162 µM): 0.299 GR
- GR value ([2]; 0.0003162 µM): 1.02 GR
- GR value ([2]; 0.001 µM): 1 GR
- GR value ([2]; 0.003162 µM): 0.994 GR
- GR value ([2]; 0.01 µM): 0.974 GR
- GR value ([2]; 0.03162 µM): 0.863 GR
- GR value ([2]; 0.1 µM): 0.792 GR
- GR value ([2]; 0.3162 µM): 0.752 GR
- GR value ([2]; 1 µM): 0.671 GR
- GR value ([2]; 3.162 µM): 0.637 GR
- GR value (THZ531; 0.0001 µM): 0.995 GR
- GR value (THZ531; 0.0003162 µM): 0.952 GR
- GR value (THZ531; 0.001 µM): 1 GR
- GR value (THZ531; 0.003162 µM): 1.01 GR
- GR value (THZ531; 0.01 µM): 1.07 GR
- GR value (THZ531; 0.03162 µM): 1.06 GR
- GR value (THZ531; 0.1 µM): 0.745 GR
- GR value (THZ531; 0.3162 µM): 0.0467 GR
- GR value (THZ1; 0.0001 µM): 1.02 GR
- GR value (THZ1; 0.0003162 µM): 0.993 GR
- GR value (THZ1; 0.001 µM): 0.991 GR
- GR value (THZ1; 0.003162 µM): 0.946 GR
- GR value (THZ1; 0.01 µM): 0.975 GR
- GR value (THZ1; 0.03162 µM): 0.705 GR
- GR value (THZ1; 0.1 µM): 0.232 GR
- GR value (THZ1; 0.3162 µM): -0.363 GR
- GR value (LEE011/Ribociclib; 0.001 µM): 0.968 GR
- GR value (LEE011/Ribociclib; 0.003162 µM): 0.932 GR
- GR value (LEE011/Ribociclib; 0.01 µM): 0.956 GR
- GR value (LEE011/Ribociclib; 0.03162 µM): 0.939 GR
- GR value (LEE011/Ribociclib; 0.1 µM): 0.901 GR
- GR value (LEE011/Ribociclib; 0.3162 µM): 0.821 GR
- GR value (LEE011/Ribociclib; 1 µM): 0.862 GR
- GR value (LEE011/Ribociclib; 3.162 µM): 0.813 GR
- GR value (LEE011/Ribociclib; 10 µM): 0.616 GR
- GR value ([3]; 0.001 µM): 0.973 GR
- GR value ([3]; 0.003162 µM): 0.947 GR
- GR value ([3]; 0.01 µM): 0.933 GR
- GR value ([3]; 0.03162 µM): 0.853 GR
- GR value ([3]; 0.1 µM): 0.761 GR
- GR value ([3]; 0.3162 µM): 0.679 GR
- GR value ([3]; 1 µM): 0.521 GR
- GR value ([3]; 3.162 µM): 0.393 GR
- GR value ([3]; 10 µM): -0.545 GR
- GR50, 72 h (Paclitaxel): 0.00167 µM
- GR50, 72 h (Vorinostat): 2.5 µM
- GR50, 72 h (AZD5363): 0.0128 µM
- GR50, 72 h (BSJ-03-123): 3.31 µM
- GR50, 72 h [4]: 0.0263 µM
- GR50, 72 h (Buparlisib/NVP-BKM120): 1.04 µM
- GR50, 72 h (SHP099): > 10 µM
- GR50, 72 h (Cabozantinib): > 10 µM
- GR50, 72 h [5]: 1.25 µM
